# According to US20260315431A1, “NANOMATERIAL ENCAPSULATED BIOFILM INHIBITORS FOR DENTAL CARIES TREATMENT” (THE UAB RESEARCH FOUNDATION, priority 2023, published 2026):
# Entries after “also recorded” stand apart in the source; their conditions may differ. Marks after values point to notes of the source that are not given here.
# Columns and labels:
# S. mutans UA159 = test: Gnotobiotic rat model of dental caries (HA5 / HA6 study, Example 2); format: in vivo, Fischer 344 rats infected with S. mutans UA159; design: key to Buccal Mean Caries Scores (±SEM) E / Buccal Mean Caries Scores (±SEM) Ds / Buccal Mean Caries Scores (±SEM) Dm / Buccal Mean Caries Scores (±SEM) Dx / Sulcal Mean Caries Scores (± SEM) E / Sulcal Mean Caries Scores (± SEM) Ds / Sulcal Mean Caries Scores (± SEM) Dm / Sulcal Mean Caries Scores (± SEM) Dx / Proximal Mean Caries Scores (± SEM) E / Proximal Mean Caries Scores (± SEM) Ds: Keyes method caries scores, mean ± SEM; details: for effect on bacterial colonization / reduction in caries scores: 4-week treatment, 100 μM; for CFU/mL BAP: Blood agar plate; for CFU/mL BAP / CFU/mL MS / Buccal Mean Caries Scores (±SEM) Dx / Sulcal Mean Caries Scores (± SEM) Dx / Buccal Mean Caries Scores (±SEM) Dm / Sulcal Mean Caries Scores (± SEM) Dm / Buccal Mean Caries Scores (±SEM) Ds / Proximal Mean Caries Scores (± SEM) Ds / Sulcal Mean Caries Scores (± SEM) Ds / Buccal Mean Caries Scores (±SEM) E / Proximal Mean Caries Scores (± SEM) E / Sulcal Mean Caries Scores (± SEM) E: 100 μM (NaF 250 ppm); for CFU/mL MS: Mitis-Salivarius agar; for Buccal Mean Caries Scores (±SEM) Dx / Sulcal Mean Caries Scores (± SEM) Dx: dentinal extensive; for Buccal Mean Caries Scores (±SEM) Dx / Sulcal Mean Caries Scores (± SEM) Dx / Buccal Mean Caries Scores (±SEM) Dm / Sulcal Mean Caries Scores (± SEM) Dm / Buccal Mean Caries Scores (±SEM) Ds / Proximal Mean Caries Scores (± SEM) Ds / Sulcal Mean Caries Scores (± SEM) Ds / Buccal Mean Caries Scores (±SEM) E / Proximal Mean Caries Scores (± SEM) E / Sulcal Mean Caries Scores (± SEM) E: twice daily, 4 weeks, n = 5; for Buccal Mean Caries Scores (±SEM) Dm / Sulcal Mean Caries Scores (± SEM) Dm: dentinal moderate; for Buccal Mean Caries Scores (±SEM) Ds / Proximal Mean Caries Scores (± SEM) Ds / Sulcal Mean Caries Scores (± SEM) Ds: dentinal slight; for Buccal Mean Caries Scores (±SEM) E / Proximal Mean Caries Scores (± SEM) E / Sulcal Mean Caries Scores (± SEM) E: enamel
# Experimental: To understand how these compounds affect the residential bacterial community, we conducted an in vivo evaluation of both HA5 and HA6 and compared to the untreated and NaF-treated rats using a well-established gnotobiotic rat model of dental caries^[50-54]. Treatment groups used in this study were inhibitor HA5 (100 μM), inhibitor HA6 (100 μM), and vehicle. A UA159 infection only group served as a negative control and a NaF (250 ppm) served as a positive control.
# All rats from the experimental groups and from the control groups were colonized with S. mutans UA159. […] The effect of the treatment on dentinal moderate (Dm) and dentinal extensive (Dx) scores in the proximal area were not recorded as there were no observable caries lesions in both control and the treated groups. The observed reductions in caries scores by HA5 or HA6 were slightly lower than the positive control NaF treatment. However, it should be noted that the concentration of NaF (250 ppm=5.95 mM) is about 59-fold higher than the inhibitor treatment dose of 100 μM.
# (§1) We used Fischer 344 rats that were bred and maintained in trexler isolators for this experiment. Male and female rat pups were removed from isolators at 20 days of age and randomly assigned into treatment groups of 5 rats/group in cages with filter tops. Rats were then infected with S. mutans UA159 strain by oral swabbing daily for four consecutive days with a fresh overnight culture of S. mutans UA159. Rats were provided with caries promoting Teklad Diet 305 containing […] (Harlan Laboratories, Inc., Indianapolis, IN) and sterile drinking water ad libitum. Oral swabs were taken 5 days post-infection and plated on Todd Hewitt (TH) agar plates and incubated at 37° C. in an environment of 5% CO2 in the air to confirm colonization. Rats were weighed at weaning and then weekly throughout the experiment. One-week post-infection, the molars of the rats were brushed twice daily for 4 weeks with the test compounds using camel-hair brushes. Four treatment groups used in this study were: 1) HA5 (100 μM); 2) […] (100 μM); 3) NaF (250 ppm); and 4) infected untreated rats. Drinking water was withheld for 60 min following each treatment with the compound. Animals were weighed at weaning and at the termination of the experiment. On day 60, the rats were sacrificed using CO2 followed by cervical dislocation or bilateral thoracotomy. The mandibles were surgically removed and cleaned of excess tissue to assess the level of bacteria present and the extent of caries formation. The right mandible from each rat was placed in a tube containing phosphate buffer (3 mL), placed on ice and sonicated (10 sec) to release bacteria from the molars. Each sample was serially diluted, plated on blood (BAP) and mitis-salivarius (MS) agar plates and incubated in an environment of 5% CO2 in air at 37° C. to quantify the level of total bacteria and S. mutans present in the plaque. The right and left mandibles from each rat were then placed in 95% ethanol for 24 h. The mandibles will be cleaned and stained overnight with murexide solution. After drying, the mandibles were sectioned and scored for caries activity using the Keyes method Caries scores were recorded for the buccal, sulcal and proximal molar surfaces individually so that differences among the surfaces can be distinguished. Statistical significance in the mean caries scores, colony-forming units (CFU)/mandible and body weights between groups of rats were determined by one-way analysis of variance (ANOVA) with the Tukey-Kramer multiple comparison test using the InStat program (GraphPad Prism 10.0.2.). When determining the statistical significance between the two groups, an unpaired t-test was applied. Differences between groups were considered significant at a P-value<0.05.
# rat oral microbiome = test: Rat oral microbiome (16S rRNA gene sequencing); format: in vivo, Fischer 344 rats; details: for overall effect on rat oral microbiome / oral microbiome composition, phylum level: 2-week and 4-week treatment; for oral microbiome composition, phylum level / oral microbiome composition, family level within Firmicutes: 100 μM; for oral microbiome composition, family level within Firmicutes: 4-week treatment; for beta diversity (Bray-Curtis, PERMANOVA): P-value>0.05 vs native community
# Experimental: During this study, rat oral microbiome samples were collected from individual rats (n=5) at the following time points: before the experiment (Native), after inoculation of S. mutans and the start of a caries-promoting diet (Sm+CPD), after two weeks of treatment with the compound (2-week), and at the end of the study (END). The microbiota between the groups at different time points was analyzed for oral bacterial composition and abundance. Oral swabs collected before and after interventions with these compounds were analyzed using the 16s rRNA gene sequencing method. Both ‘within’ (alpha diversity) and ‘between’ (beta diversity) sample diversities were calculated over time for each treatment group using MicrobiomeAnalyst 2.0^[55].
# as §1
# In addition to recording buccal, sulcal and proximal molar surface caries scores and colony-forming units (CFU)/mandible and body weights between groups of rats as described above, plaque samples from rats treated or untreated were collected and DNA was extracted from each sample and used for PCR amplification of ~430 bp amplicons of 16S ribosomal DNA hypervariable regions V3 and V4, Illumina adaptors, and molecular barcodes as described^[66]. […]
# [1] = Body weight of animals, HA5 / HA6 study; format: in vivo, Fischer 344 rats; details: for Weight: 100 μM (NaF 250 ppm); for weight loss: 4-week treatment, 100 μM
# From the text: as §1
SMILES,effect on bacterial colonization (S. mutans UA159),reduction in caries scores (S. mutans UA159),CFU/mL BAP (S. mutans UA159),CFU/mL MS (S. mutans UA159),Buccal Mean Caries Scores (±SEM) Dx (S. mutans UA159),Sulcal Mean Caries Scores (± SEM) Dx (S. mutans UA159),Buccal Mean Caries Scores (±SEM) Dm (S. mutans UA159),Sulcal Mean Caries Scores (± SEM) Dm (S. mutans UA159),Buccal Mean Caries Scores (±SEM) Ds (S. mutans UA159),Proximal Mean Caries Scores (± SEM) Ds (S. mutans UA159),Sulcal Mean Caries Scores (± SEM) Ds (S. mutans UA159),Buccal Mean Caries Scores (±SEM) E (S. mutans UA159),Proximal Mean Caries Scores (± SEM) E (S. mutans UA159),Sulcal Mean Caries Scores (± SEM) E (S. mutans UA159),overall effect on rat oral microbiome (rat oral microbiome),"oral microbiome composition, phylum level (rat oral microbiome)","oral microbiome composition, family level within Firmicutes (rat oral microbiome)","beta diversity (Bray-Curtis, PERMANOVA) (rat oral microbiome)",Weight [1],weight loss [1],also measured
"O=C1/C(=C/c2cc(O)c(O)cc2O)Oc2ccccc21 [HA5, 2-[(2′,4′,5′-Trihydroxyphenyl)methylidene]-2,3-dihydro-1-benzofuran-3-one]",did not affect bacterial colonization significantly,significant reductions in buccal caries scores; also recorded: can significantly reduce the caries scores in vivo,3.9 ± 1.4 CFU/mL (×10^5),2.2 ± 0.8 CFU/mL (×10^5),2.2 ± 0.7,1.0 ± 0.3,3.6 ± 0.4,4.6 ± 0.2,6.6 ± 0.5,0.0 ± 0.0,11.2 ± 0.6,7.8 ± 0.4,1.0 ± 0.3,16.4 ± 2.2,without affecting the rat oral microbiome; also recorded: without perturbing the overall rat oral microbiome significantly; also recorded: do not perturb oral microbiome significantly,did not perturb the overall rat oral microbiome at phylum levels significantly,did not perturb the overall rat oral microbiome significantly within this phylum,without any significant deviations,156 ± 16 g,did not experience significant weight loss,–
"O=C1/C(=C/c2cc(O)c(O)c(O)c2)Oc2ccccc21 [HA6, 2-[(3′,4′,5′-Trihydroxyphenyl)methylidene]-2,3-dihydro-1-benzofuran-3-one]",did not affect bacterial colonization significantly,significant reductions in buccal caries scores; also recorded: can significantly reduce the caries scores in vivo,1.9 ± 0.5 CFU/mL (×10^5),1.3 ± 0.4 CFU/mL (×10^5),1.2 ± 0.5,1.6 ± 0.4,4.0 ± 0.7,6.4 ± 0.4,6.8 ± 0.5,0.0 ± 0.0,11.2 ± 0.7,8.2 ± 0.7,1.2 ± 0.8,14.6 ± 0.9,without affecting the rat oral microbiome; also recorded: without perturbing the overall rat oral microbiome significantly; also recorded: do not perturb oral microbiome significantly,did not perturb the overall rat oral microbiome at phylum levels significantly,did not perturb the overall rat oral microbiome significantly within this phylum,without any significant deviations,165 ± 13 g,did not experience significant weight loss,–
"[F-].[Na+] [NaF, reference compound]",–,–,2.8 ± 0.7 CFU/mL (×10^5),1.6 ± 0.6 CFU/mL (×10^5),0.4 ± 0.2,1.6 ± 0.5,1.6 ± 0.5,5.4 ± 0.4,3.2 ± 0.9,0.0 ± 0.0,10.4 ± 0.5,6.2 ± 0.9,0.0 ± 0.0,15.2 ± 0.7,–,–,–,–,145 ± 12 g,–,"oral bacterial community after Sm+CPD (beta diversity) (rat oral microbiome; NaF-treated group, PERMANOVA, P-value>0.001 (so in the source)): the community was shifted; abundance of the Streptococcaceae family (rat oral microbiome; second week, not sustained till the end of the study): increase in the abundance of the Streptococcaceae family"
